Assay results published in US20170340629A1 (AB SCIENCE, priority 2014, published 2017).
Counter-ions that a name gives are not always drawn. Like-named read-outs stand apart in the source and are kept apart here.

What was measured:
MDAMB134 = assay: WST-1 proliferation/viability assay, MDAMB134; type: cell-based, human; settings: 72 h, 1% FCS
Procedure: (§1) Breast cancer cell lines (generous gift from Dr. […], UMR 599 INSERM, Marseille, France) were cultured as monolayers in RPMI 1640 medium, containing L-glutamine supplemented with 100 U/mL penicillin and 100 μg/mL streptomycin, and 10% v/v heat-inactivated fetal calf serum (AbCys Lot S02823S1800) under standard culture conditions (5% CO2, 95% air in humidified chamber at 37° C.). During proliferation assay, all cells were grown in medium containing 1% FCS. Colorimetric cell proliferation and viability assay (reagent WST-1 purchased from Roche cat N^o 1644807)-Cells were washed once and resuspended in RPMI 1% FCS. Cells were plated at 1×10^4/50 μl per well of a 96 well plate. […] Treatment was started by the addition of 50 μl of a 2× concentrated drug solution to a final volume of 100 μl. […] After incubating for 72 hours at 37° C., 10 μl of a 1⁄2 dilution of WST-1 reagent was added to each well and the plates were returned to the incubator for an additional 4 hours. The absorbance of the samples was measured at 490 nm using an EL800 Universal microplate reader (Bio-Tek Instruments Inc.). A background control without cells was used as a blank. The positive control of the assay corresponds to the cell proliferation obtained in the absence of drug treatment (100% proliferation). Each sample was done in duplicate, the absorbance values were transferred to an excel file, the average and standard deviation of the duplicates were calculated and expressed as a percentage of the proliferation obtained in absence of treatment. The results presented are representative of a minimum of four experiments.

BT474 = assay: WST-1 proliferation/viability assay, BT474; type: cell-based, human; settings: 72 h, 1% FCS
Procedure: as §1, with “The positive control of the assay corresponds to the cell proliferation obtained in the absence of drug treatment (100% proliferation).” left out, “The results presented are representative of a minimum of four experiments.” left out

MDAMB231 = assay: WST-1 proliferation/viability assay, MDAMB231; type: cell-based, human; settings: 72 h, 1% FCS
Procedure: as §1

MCF-7 = assay: WST-1 proliferation/viability assay, MCF-7; type: cell-based; settings: Homo sapiens, 72 h, 1% FCS
Procedure: as §1, with “The positive control of the assay corresponds to the cell proliferation obtained in the absence of drug treatment (100% proliferation).” left out, “The results presented are representative of a minimum of four experiments.” left out

[1] = tested on: TNBC (metastatic or locally advanced); settings: cisplatin alone (N = 58); Baselga et al. 2013; cited from earlier work
HCC1937 = assay: WST-1 proliferation/viability assay, HCC1937; type: cell-based; settings: Homo sapiens, doxorubicin single agent, 72 h, 1% FCS
Procedure: as §1, with “The positive control of the assay corresponds to the cell proliferation obtained in the absence of drug treatment (100% proliferation).” left out, “The results presented are representative of a minimum of four experiments.” left out

BT20 = assay: WST-1 proliferation/viability assay, BT20; type: cell-based; settings: Homo sapiens, BT-20, gemcitabine single agent, 72 h, 1% FCS
Procedure: as §1, with “The positive control of the assay corresponds to the cell proliferation obtained in the absence of drug treatment (100% proliferation).” left out, “The results presented are representative of a minimum of four experiments.” left out

Mia Paca-2 cells = assay: WST-1 proliferation/survival assay, gemcitabine-resistant Mia Paca-2; type: cell-based; settings: for IC50: Homo sapiens, 72 hours, 1% FCS, read-out: IC50 single agent; for sensitization of cells to gemcitabine by TKI pre-incubation: TKI 5 or 10 μM overnight before gemcitabine, FIG. 2; for cell proliferation, single agent: TKI 10 μM
Procedure: The antiproliferative activity of each TKI and gemcitabine is assessed using a WST-1 proliferation/survival assay in growth medium containing 1% fetal calf serum (FCS). Treatment is started with the addition of the relevant drug. For combination treatment (TKI plus gemcitabine), cells are re-suspended in medium (1% FCS) containing 0, 5 or 10 μM of the relevant TKI and incubated overnight before gemcitabine addition. After 72 hours, WST-1 reagent is added and incubated with the cells for 4 hours before absorbance measurement at 450 nm in an EL800 Universal Microplate Reader (Bio-Tek Instruments Inc.). Media alone is used as a blank and proliferation in the absence of drug served as a positive control. A TKI sensitization index is calculated as the ratio of the IC50 of gemcitabine against the IC50 of the drug combination.

[2] = tested on: relapsed or refractory inflammatory breast cancer; settings: lapatinib 1500 mg/day; 126 patients; Kaufman et al. 2009; cited from earlier work
breast cancer cell lines = assay: WST-1 proliferation assay, masitinib mesilate single agent; type: cell-based; settings: Homo sapiens, 1% FCS
Procedure: Breast cancer cell lines (generous gift from Dr. […], UMR 599 INSERM, Marseille, France) were cultured as monolayers in RPMI 1640 medium, containing L-glutamine supplemented with 100 U/mL penicillin and 100 μg/mL streptomycin, and 10% v/v heat-inactivated fetal calf serum (AbCys Lot S02823S1800) under standard culture conditions (5% CO2, 95% air in humidified chamber at 37° C.). During proliferation assay, all cells were grown in medium containing 1% FCS. Colorimetric cell proliferation and viability assay (reagent WST-1 purchased from Roche cat N^o 1644807)-Cells were washed once and resuspended in RPMI 1% FCS. Cells were plated at 1×10^4/50 μl per well of a 96 well plate. […] Treatment was started by the addition of 50 μl of a 2× concentrated drug solution to a final volume of 100 μl. […] The absorbance of the samples was measured at 490 nm using an EL800 Universal microplate reader (Bio-Tek Instruments Inc.). […] Each sample was done in duplicate, the absorbance values were transferred to an excel file, the average and standard deviation of the duplicates were calculated and expressed as a percentage of the proliferation obtained in absence of treatment. […] Breast cancer cell lines were first analyzed for their sensitivity to masitinib mesilate when used as single agent.

[3] = tested on: CMT-U309 canine mammary tumor cell line; assay: MTT proliferation assay and combination index, CMT-U309; settings: for Viability (%): 72 hours incubation, doses at single-agent IC50 concentrations; for IC50: single agent
Procedure: (§2) Two canine mammary tumor (CMT) cell lines were evaluated, CMT-U27 and CMT-U309. CMT-U27 is a highly metastatic canine mammary carcinoma cell line while CMT-U309 is a non-metastatic spindle-cell cell line. Cell lines were maintained in Dulbecco's modified Eagles Medium-F12 supplemented with 10% fetal bovine serum and antimicrobials (penicillin [100 U/mL] and streptomycin [0.1 mg/mL]). Cell lines were maintained in a humidified atmosphere of 5% carbon dioxide at 37° C.
(§3) Solutions were prepared newly prepared from the stock solution for each experiment.
(§4) Cells were seeded at a density of 1.0×10^4 cells/well (final volume, 100 μL/well) in three replicates. […] At the end of treatment, 10 μl of MTT solution (5 mg/ml in PBS) was added to each well. The plates were incubated for 4 hours in a humidified atmosphere at 37° C. with 5% CO2. After that incubation, cell proliferation was assessed by use of a commercial cell proliferation MTT [3-(4,5-dimethylthiazol-2-yl)-2,5-diphenyltrazolium bromide] kit. All samples were assayed in triplicate, and the mean for each experiment was calculated. The effect of each compound on growth inhibition was assessed as percent cell viability where vehicle-treated cells were taken as 100% viable. Cell proliferation was expressed as a percentage of the control wells by use of the following equation: (absorbance of sample wells/absorbance of control wells)×100. The mean of triplicate experiments for each dose was used to calculate IC50 as determined by CalcuSyn software.

[4] = tested on: CMT-U27 canine mammary carcinoma cell line; assay: MTT proliferation assay and combination index, CMT-U27; type: cell-based; settings: for IC50: single agent, read-out: IC50 growth inhibitory activity
Procedure: as §2, §3, §4

[5] = tested on: metastatic or locally advanced breast cancer (except triple negative); settings: patients resistant to at least one first-line chemotherapy; literature (Miller 2005; Brodowicz 2000); cited from earlier work
[6] = carboplatin single agent, read-out: IC50 CPT
[7] = Canis lupus familiaris, 24 h, read-out: IC50 growth inhibitory activity, CMT-U309, 24 h
[8] = Canis lupus familiaris, 48 h, read-out: IC50 growth inhibitory activity, CMT-U309, 48 h
[9] = Canis lupus familiaris, 72 h, read-out: IC50 growth inhibitory activity, CMT-U309, 72 h

For N.N.O=C([O-])C1(C(=O)[O-])CCC1.[Pt+2] [CPT, carboplatin], the IC50 (MDAMB134; [6]) was greater than 100 µM, the IC50 (BT474; [6]) was greater than 100 µM and the IC50 (MDAMB231; [6]) was greater than 100 µM.
Work on CCc1c2c(nc3ccc(OC(=O)N4CCC(N5CCCCC5)CC4)cc13)-c1cc3c(c(=O)n1C2)COC(=O)[C@]3(O)CC [CPT-11, irinotecan] yielded an IC50 (MDAMB134; Homo sapiens, irinotecan single agent, read-out: IC50 CPT-11) of 30 µM, an IC50 (MDAMB231; Homo sapiens, MDA-MB-231, irinotecan single agent, read-out: IC50 CPT-11) of 30 µM and an IC50 (MCF-7; MCF7, irinotecan single agent, read-out: IC50 CPT-11) of 100 µM.
For N.N.[Cl][Pt][Cl] [Cisplatin, cisplatin], the “Median OS (months)” value [1] is listed as 9.4 months.
COc1cccc2c1C(=O)c1c(O)c3c(c(O)c1C2=O)C[C@@](O)(C(=O)CO)C[C@@H]3O[C@H]1C[C@H](N)[C@H](O)[C@H](C)O1 [DOX, doxorubicin] showed an IC50 (MDAMB134; Homo sapiens, doxorubicin single agent, read-out: IC50 DOX) of 1 µM, an IC50 (MDAMB231; Homo sapiens, MDA-MB-231, doxorubicin single agent, read-out: IC50 DOX) of 1 µM and an IC50 (HCC1937) of 1 µM. It also gave an IC50 (MCF-7; MCF7, doxorubicin single agent, read-out: IC50 DOX) of 1 µM.
In the case of Nc1ccn([C@@H]2O[C@H](CO)[C@@H](O)C2(F)F)c(=O)n1 [GCB, 2′,2′,-dofluoro-2′,-deoxycytidine], the IC50 (MDAMB134; Homo sapiens, gemcitabine single agent, read-out: IC50 GCB) is reported as 100 µM, the IC50 (BT20) is reported as 50 µM and the IC50 (BT474; Homo sapiens, BT-474, gemcitabine single agent, read-out: IC50 GCB) is reported as 100 µM. The IC50 (MDAMB231; Homo sapiens, MDA-MB-231, gemcitabine single agent, read-out: IC50 GCB) was 100 µM and the IC50 (Mia Paca-2 cells) was greater than 10 µM.
For CS(=O)(=O)CCNCc1ccc(-c2ccc3ncnc(Nc4ccc(OCc5cccc(F)c5)c(Cl)c4)c3c2)o1 [Lapatinib, lapatinib], the Median overall survival [2] is listed as 11.2 months.
Work on Cc1ccc(NC(=O)c2ccc(CN3CCN(C)CC3)cc2)cc1Nc1nc(-c2cccnc2)cs1 [Masitinib mesilate] yielded an IC50 (breast cancer cell lines) greater than 6 µM.
For Cc1ccc(NC(=O)c2ccc(CN3CCN(C)CC3)cc2)cc1Nc1nc(-c2cccnc2)cs1 [Masitinib, 4-(4-methylpiperazin-1-ylmethyl)-N-[4-methyl-3-(4-pyridin-3ylthiazol-2-ylamino)phenyl]benzamide], the IC50 (Mia Paca-2 cells) was 5 to 10 µM, the “sensitization of cells to gemcitabine by TKI pre-incubation” value (shortened to “sensitization of cells to gemcitabine”) (Mia Paca-2 cells) was “significantly sensitized” and the cells remaining resistant (Mia Paca-2 cells; masitinib concentration of 10 μM, FIG. 1) was “more than 50%”. For the same compound, the “Viability (%)” value ([3]; CMT-U309) was 66.0%, the IC50 [3, 7] was 15 µM and the IC50 [3, 8] was 8.87 µM. The IC50 [3, 9] was 8.5 µM, the IC50 ([3]; read-out: IC50 growth inhibitory activity, CMT-U309, 72 h) was 8.54 µM and the IC50 ([4]; 72 h) was 7.5 µM. For the same compound, the “Viability (%)” value ([4]; 72 hours incubation, doses at single-agent IC50 concentrations) was 77.3%, the IC50 ([4]; Canis lupus familiaris, 24 h) was 9.13 µM and the IC50 ([4]; Canis lupus familiaris, 48 h) was 7.61 µM. For the same compound, the IC50 ([4]; Canis lupus familiaris, 72 h) was 7.5 µM.
For O=C1c2c(O)ccc(O)c2C(=O)c2c(NCCNCCO)ccc(NCCNCCO)c21 [Mitoxantrone, Mitoxantrone dihydrochloride], the “Viability (%)” value ([3]; CMT-U309) was 56.8%, the IC50 [3, 7] was 2.77 µM and the IC50 [3, 8] was 1 µM. For the same compound, the IC50 [3, 9] was 0.75 µM, the IC50 ([3]; read-out: IC50 growth inhibitory activity, CMT-U309, 72 h, dihydrochloride) was 0.751 µM and the IC50 ([4]; 72 h, listed as Mixoxantrone, dihydrochloride) was 0.219 µM. It also gave an IC50 ([4]; Canis lupus familiaris, 24 h) of 3.09 µM, an IC50 ([4]; Canis lupus familiaris, 48 h) of 1.11 µM and an IC50 ([4]; Canis lupus familiaris, 72 h) of 0.22 µM.
In the case of CCCCCOC(=O)Nc1nc(=O)n([C@@H]2O[C@H](C)[C@@H](O)[C@H]2O)cc1F [capecitabine], the “Median OS (months), benchmark single agent (L2)” value [5] is listed as 14.5 months.
In the case of Cc1nc(Nc2ncc(C(=O)Nc3c(C)cccc3Cl)s2)cc(N2CCN(CCO)CC2)n1 [dasatinib], the “cell proliferation, single agent” value (Mia Paca-2 cells; FIG. 1) is reported as “affected by a similar extent”, the “sensitization of cells to gemcitabine” value (Mia Paca-2 cells) is reported as “does not result in an increased response” and the “cell proliferation at low concentrations” value (Mia Paca-2 cells; concentrations superior to 0.1 μM) is reported as “partial inhibition”.
With Cc1ccc(NC(=O)c2ccc(CN3CCN(C)CC3)cc2)cc1Nc1nccc(-c2cccnc2)n1 [imatinib] the “cell proliferation, single agent” value (Mia Paca-2 cells; FIG. 1) was “only weakly inhibited” and the “sensitization of cells to gemcitabine” value (Mia Paca-2 cells) was “does not result in an increased response”.
